US10139394B2, “Method for controlling cancer metastasis or cancer cell migration by modulating the cellular level of lysyl tRNA synthetase” (Medicinal Bioconvergence Research Center, priority 2008, dated 2018)

Test system: 67LR
Assay: 67LR level in membrane and cytoplasm of A549 cells (Western blotting, flow cytometry)
Assay type: cell-based
Details: membrane fraction, FIG. 13
Experimental: In FIG. 13, A549 cells were transfected with si-control or si-KRS and incubated in the absence and presence of laminin. The cells were then separated to cytoplasm and membrane fractions, and the levels of 67LR and KRS in each fraction were determined by Western blotting. Cadherin (cad) and hsp90 were used as the markers for plasma membrane and cytoplasm, respectively. In FIG. 14, the membrane-bound 67LR level in A549 cells was monitored by flow cytometry using anti-LR antibody (MLuC5). The cells were transfected with empty vector or KRS plasmid and incubated for 24 h (upper). […] In FIG. 15, A549 cells transfected with EV or KRS was selected with G418 for a week and cellular distribution of 67LR was determined by immunofluorescence staining with anti-LR antibody (MLuC5). […] In FIG. 16, A549 cells were treated with cycloheximide to inhibit de novo protein synthesis and the effect of KRS levels on 67LR level in membrane and cytoplasm was determined by Western blotting. In FIG. 17, the importance of KRS for cellular stability of 67LR was determined by pulse-chase experiment. […]
To address cell cycle, the cultivated cells were transfected or treated with the indicated vector or chemicals, fixed with 70% ethanol for 1 hr at 4° C. and washed with ice-cold PBS two times. […] For each sample, 20,000 cells were analyzed using Cell Quest Pro software. […]

**Q.** For “laminin: laminin (Engelbreth-Holm-Swarm murine sarcoma) from Sigma”, which 67LR level is on record?
**A.** The 67LR level was “increased”.
